Test system: angiotensin converting enzyme
Assay: in vitro spectrophotometric assay for inhibition of angiotensin converting enzyme (method of Cushman and Cheung)
Type: biochemical
Conditions: crude extract of ACE from rabbit lung acetone powder; substrate benzoyl-glycyl-histidyl-leucine; 30 minutes at 37° C.; result in words only
Experimental: The in vitro activity for inhibition of the angiotensin converting enzyme was measured by the method of D. W. Cushman and H. S. Cheung, Biochem. Pharmacol., Vol. 20, pages 1637-1648 (1972), using benzoyl-glycyl-histidyl-leucine as the substrate. The reaction mixture consisted of 50 μl. of potassium phosphate (500 mM., pH of […]), 30 μl. of sodium chloride (2500 mM.), 25 μl. of substrate (50 mM.), 30 to 50 μl. of the crude extract of ACE, 10 μl. of the test compound (2.5 mM.) or vehicle, and a suitable amount of distilled water to give a total volume of 250 μl. This reaction mixture was incubated for 30 minutes at 37° C. and the reaction was then terminated by the addition of 250 μl. of 1 N hydrochloric acid. The hippuric acid was then extracted with 1.5 ml. of ethyl acetate by vortex mixing for 15 seconds. After centrifugation, one ml. of the ethyl acetate layer was pipetted into a new tube and evaporated to dryness. The extracted hippuric acid was then dissolved in one ml. of water and the amount of this acid was then measured by its absorbance at 228 nm. […] The activity of the ACE inhibitor was calculated as the percent inhibition of ACE activity compared to the control value of that particular assay. […]

| Compound | inhibition of the angiotensin converting enzyme |
| --- | --- |
| COc1ccc(C(=O)C(CC(=O)N[C@@H](Cc2ccccc2)C(=O)O)SC(C)=O)cc1F (stereo partly drawn) [Example 23, N-[3-Acetylthio-3-(3-fluoro-4-methoxybenzoyl)propionyl]-L-phenylalanine] | angiotensin converting enzyme inhibitors |
| CC(=O)SC(CC(=O)N[C@H](C(=O)O)C(C)C)C(=O)c1ccc(Br)cc1 (stereo partly drawn) [Example 1, N-[3-Acetylthio-3-(4-bromobenzoyl)propionyl]-L-valine] | angiotensin converting enzyme inhibitors |
